The supplement of paper PMC10627819

Legend:
B. subtilis 168 [1] = experiment: fitness (endpoint OD595 vs no drug) (fraction); higher = more growth
Method in brief: (§1)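 Bacterial fitness was scored as optical density at the stationary-phase transition relative to the robust mean of no-drug control wells. Scores are capped at 1. The growth data were OD595 readings every 30 min for 14 h at 37 °C, background-subtracted against the first reading, from 384-well plates inoculated at OD595 0.01 in TSB, LB Lennox or CY.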

S. aureus Newman [2] = experiment: as above
Method in brief: as §1

S. aureus DSM 20231 [3] = experiment: as above
Method in brief: as §1

S. pneumoniae D39V [4] = experiment: as above
Method in brief: as §1

B. subtilis 168 [5] = experiment: Bliss interaction score (quartile over a dose matrix) (fitness difference); higher = more antagonism (negative = synergy)
Method in brief: (§2)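 Growth was read as OD595 when cultures entered stationary phase, and each value was divided by the plate's robust no-drug mean and capped at 1. This normalised ratio is the fitness value, and fitness for each single drug came from the combination data. The Bliss score subtracts the expected fitness, taken as the product, from the observed fitness and is given as quartiles across technical, biological and donor/recipient replicates.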

S. aureus Newman [6] = experiment: as above
Method in brief: as §2

S. aureus DSM 20231 [7] = experiment: as above
Method in brief: as §2

S. pneumoniae D39V [8] = experiment: as above
Method in brief: as §2
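For Bliss interaction score (quartile over a dose matrix) in this document: first quartile when negative (synergy) and third quartile when positive (antagonism).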
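For fitness (endpoint OD595 vs no drug) in this document: OD595 on entry to stationary phase over no-drug wells; at most 1.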

CCC[C@@H]1C[C@@H](C(=O)N[C@@H]([C@H]2O[C@H](SC)[C@H](O)[C@@H](O)[C@H]2O)[C@H](C)Cl)N(C)C1 [Clindamycin] + C[C@@H]1O[C@@H]1P(=O)(O)O [Fosfomycin]
fitness, B. subtilis 168 [1], one replicate
Conditions | first compound 0.0039 µg/mL | first compound 0.0078 µg/mL | first compound 0.0156 µg/mL
partner 1.562 µg/mL | 0.7 | 0.637 | 0.556
partner 3.124 µg/mL | 0.633 | 0.564 | 0.51
partner 6.248 µg/mL | 0.55 | 0.549 | 0.45

Conditions | fitness
B. subtilis 168 [1], first compound 0.0625 µg/mL, partner 1.562 µg/mL | 0.493
B. subtilis 168 [1], first compound 0.0625 µg/mL, partner 3.124 µg/mL | 0.419
B. subtilis 168 [1], first compound 0.0625 µg/mL, partner 6.248 µg/mL | 0.208
B. subtilis 168 [1], first compound 0.125 µg/mL, partner 1.562 µg/mL | 0.311
B. subtilis 168 [1], first compound 0.125 µg/mL, partner 3.124 µg/mL | 0.234
B. subtilis 168 [1], first compound 0.125 µg/mL, partner 6.248 µg/mL | 0.129
B. subtilis 168 [1], first compound 0.25 µg/mL, partner 1.562 µg/mL | 0.226
B. subtilis 168 [1], first compound 0.25 µg/mL, partner 3.124 µg/mL | 0.183
B. subtilis 168 [1], first compound 0.25 µg/mL, partner 6.248 µg/mL | 0.095
S. aureus DSM 20231 [3], first compound 0.0312 µg/mL, partner 1.562 µg/mL | 0.292
S. aureus DSM 20231 [3], first compound 0.0312 µg/mL, partner 3.124 µg/mL | 0.104
S. aureus DSM 20231 [3], first compound 0.0625 µg/mL, partner 0.781 µg/mL | 0.122
S. aureus DSM 20231 [3], first compound 0.0625 µg/mL, partner 1.562 µg/mL | 0.0594
S. aureus DSM 20231 [3], first compound 0.0625 µg/mL, partner 3.124 µg/mL | 0.0236
S. aureus DSM 20231 [3], first compound 0.125 µg/mL, partner 0.781 µg/mL | 0.0473
S. aureus DSM 20231 [3], first compound 0.125 µg/mL, partner 1.562 µg/mL | 0.048
S. aureus DSM 20231 [3], first compound 0.125 µg/mL, partner 3.124 µg/mL | 0.0437
S. aureus Newman [2], first compound 0.0312 µg/mL, partner 0.781 µg/mL | 0.322
S. aureus Newman [2], first compound 0.0312 µg/mL, partner 1.562 µg/mL | 0.0838
S. aureus Newman [2], first compound 0.0312 µg/mL, partner 3.124 µg/mL | 0.0458
S. aureus Newman [2], first compound 0.0625 µg/mL, partner 0.781 µg/mL | 0.0719
S. aureus Newman [2], first compound 0.0625 µg/mL, partner 1.562 µg/mL | 0.0192
S. aureus Newman [2], first compound 0.0625 µg/mL, partner 3.124 µg/mL | 0.0091
S. aureus Newman [2], first compound 0.125 µg/mL, partner 0.781 µg/mL | 0.0513
S. aureus Newman [2], first compound 0.125 µg/mL, partner 1.562 µg/mL | 0.0428
S. aureus Newman [2], first compound 0.125 µg/mL, partner 3.124 µg/mL | 0.0521
S. pneumoniae D39V [4], first compound 0.0125 µg/mL, partner 1.25 µg/mL | 0.805
S. pneumoniae D39V [4], first compound 0.0125 µg/mL, partner 2.5 µg/mL | 0.752
S. pneumoniae D39V [4], first compound 0.0125 µg/mL, partner 5 µg/mL | 0.66
S. pneumoniae D39V [4], first compound 0.015 µg/mL, partner 1.25 µg/mL | 0.787
S. pneumoniae D39V [4], first compound 0.015 µg/mL, partner 2.5 µg/mL | 0.773
S. pneumoniae D39V [4], first compound 0.015 µg/mL, partner 5 µg/mL | 0.736
S. pneumoniae D39V [4], first compound 0.025 µg/mL, partner 1.25 µg/mL | 0.539
S. pneumoniae D39V [4], first compound 0.025 µg/mL, partner 2.5 µg/mL | 0.497
S. pneumoniae D39V [4], first compound 0.025 µg/mL, partner 5 µg/mL | 0.475
S. pneumoniae D39V [4], first compound 0.03 µg/mL, partner 1.25 µg/mL | 0.621
S. pneumoniae D39V [4], first compound 0.03 µg/mL, partner 2.5 µg/mL | 0.583
S. pneumoniae D39V [4], first compound 0.03 µg/mL, partner 5 µg/mL | 0.525
S. pneumoniae D39V [4], first compound 0.05 µg/mL, partner 1.25 µg/mL | 0.224
S. pneumoniae D39V [4], first compound 0.05 µg/mL, partner 2.5 µg/mL | 0.203
S. pneumoniae D39V [4], first compound 0.05 µg/mL, partner 5 µg/mL | 0.207
S. pneumoniae D39V [4], first compound 0.06 µg/mL, partner 1.25 µg/mL | 0.368
S. pneumoniae D39V [4], first compound 0.06 µg/mL, partner 2.5 µg/mL | 0.355
S. pneumoniae D39V [4], first compound 0.06 µg/mL, partner 5 µg/mL | 0.291

Conditions | Bliss interaction score
B. subtilis 168 [5] | 0.0321
S. aureus DSM 20231 [7] | -0.075
S. aureus Newman [6] | -0.253
S. pneumoniae D39V [8] | 0.11
